Source: patent US20110251135A1, “INHIBITORS OF PERITONEAL SEEDING OF CANCER CELLS” (University of Utah Research Foundation, priority 2008, published 2011)

What was measured:
[1] = tested on: FLIP; assay: FLIP immunoblot in HT-29 cells; assay type: cell-based, human
Experimental: The data points represent the means of triplicate experiments and the error bars the standard errors of the means. […] The percent of apoptotic cells was then determined by the annexin V assay. […] The results shown are typical of two separate experiments. […] Immunoblots were performed for c-IAP-2, TRAF-1, TRAF-2, and FLIP. All lanes contain equal total protein.
The cells were washed twice in ice cold PBS and then lysed in 4° C. lysis buffer (50 mM HEPES, 150 mM NaCl, 1.5 mM MgCl2, 1 mM EGTA, 100 mM NaF, 10 mM Na2PO4, 1 mM Na3VO4, 10% glycerol, 1% TRITON™ X-100, and 1 μg/mL each of aprotinin, leupeptin, chymostatin, pepstatin) and clarified at 12,000 rpm at 4° C. for 15 minutes. The lysates were normalized for total protein concentration. […]
For immunodetection, the blocked blots were probed with primary antibody for 2 hours at 4° C. on a rocker. […] Alkaline phosphatase was detected by a colorimetric reaction using a BCIP (5-bromo-4-chloro-3-indolyl phosphate)/NBT (nitroblue tetrazolium) kit (Zymed).
Since HCT-116 colon cancer cells have relatively low levels of FLIP compared with other cancer cell lines (FIG. 13A), they were transfected with human c-FLIP. HCT-116 cells that were transfected with human c-FLIP or empty vector were transiently suspended and allowed to readhere in the presence of BAY 11-7085 for 8 hours. […]

[2] = athymic mice; BAY 11-7085 5 mg/kg IP, 4 doses total
[3] = tested on: DLD-1 and HT-29 cells; assay: Readhesion survival of cells transduced with IκB super-repressor adenovirus (crystal violet); assay type: cell-based, human
Experimental: The percentage of apoptotic cells was determined using the annexin V assay. The data points represent the averages of three experiments; bars, +−.SE. E. DLD-1 and F. HT-29 cells were transduced with an adenovirus containing the IκB super-repressor construct. After 3 days, the cells were transiently suspended and allowed to readhere in the presence of subapoptotic concentrations of BAY 11-7085 or DMSO (vehicle) for 8 hours. The data are expressed as fractions of cells surviving compared with the controls (no adenovirus) and were quantitatively determined by staining the remaining adherent cells with crystal violet.
DLD-1 and HT-29 cells that were approximately 60-70% confluent were transduced with Ad-IκB super-repressor by adding 1-50 μL of purified virus to the cells. […] In a parallel experiment, the transduced cells were resuspended and allowed to readhere in BAY 11-7085 for 8 h. The percentage of surviving (nonapoptotic) cells was determined using crystal violet staining.
The specific involvement of NF-κB in the apoptotic mechanism of BAY 11-7085 was examined specifically. […] The transduced DLD-1 and HT-29 cells were then transiently suspended and allowed to readhere at concentrations of BAY 11-7085 below the in vitro apoptotic threshold (>20 μM) for these cell lines. […] Therefore, inhibition of NF-κB is important to the apoptotic effect of BAY 11-7085 during colon cancer cell readhesion.

CC(C)(C)c1ccc(S(=O)(=O)/C=C/C#N)cc1 [BAY 11-7085, (2E)-3-[4-(tertiarybutylphenyl)sulfonyl]-2-propenenitrile]
expression of the 54 kilodalton (long) isoform of FLIP ([1]; adherent HT-29, 20 μM): only a slight diminution
FLIP expression in readhering HT-29 cells ([1]; readhering HT-29, 3 hours): caused the down-regulation of FLIP after only 3 hours
deaths / overt signs of toxicity [2]: None of the mice died or showed overt signs of toxicity
in vitro apoptotic threshold ([3]; DLD-1 and HT-29 cells during readhesion): > 20 µM
apoptotic threshold of BAY 11-7085 compared with the controls ([3]; DLD-1 and HT-29 expressing IκB super-repressor, readhesion 8 hours): significantly lowered the apoptotic threshold
